Data: patent US20050124498A1, “Halobenzyl substituted phenylaceto esters and amides and use thereof for prevention of harmful organisms” (priority 2002, published 2005)

Experiments:
[1] = physchem
[2] = system: Leptosphaeria nodorum; test: Leptosphaeria nodorum test (wheat)/protective; type: in vivo; details: Parastagonospora nodorum, 240 h, protective, application rate 500 g/ha, evaluation 10 days after inoculation, read-out: efficacy
Procedure: Leptosphaeria nodorum test (wheat)/protective [table] To produce a suitable preparation of active compound, 1 part by weight of active compound is mixed with the stated amounts of solvent and emulsifier, and the concentrate is diluted with water to the desired concentration. To test for protective activity, young plants are sprayed with the preparation of active compound at the stated application rate. After the spray coating has dried on, the plants are sprayed with a spore suspension of Leptosphaeria nodorum. The plants remain in an incubation cabin at 20° C. and 100% relative atmospheric humidity for 48 hours. The plants are placed in a greenhouse at a temperature of about 15° C. and a relative atmospheric humidity of 80%.

[3] = system: Sphaerotheca fuliginea; test: Sphaerotheca test (cucumber)/protective; type: in vivo; details: Podosphaera fuliginea, 168 h, protective, application rate 100 g/ha, evaluation 7 days after inoculation, read-out: efficacy
Procedure: (§1) Sphaerotheca test (cucumber)/protective [table] To produce a suitable preparation of active compound, 1 part by weight of active compound is mixed with the stated amounts of solvent and emulsifier, and the concentrate is diluted with water to the desired concentration. To test for protective activity, young plants are sprayed with the preparation of active compound at the stated application rate. After the spray coating has dried on, the plants are inoculated with an aqueous spore suspension of Sphaerotheca fuliginea. The plants are then placed in a greenhouse at about 23° C. and about 70% relative atmospheric humidity.

[4] = system: Phytophthora infestans; test: whole plant or invertebrate; type: in vivo; details: in Solanum lycopersicum, 72 h, read-out: efficacy
[5] = system: Erysiphe graminis f.sp. hordei; test: Erysiphe test (barley)/protective; type: in vivo; details: Blumeria graminis, 168 h, protective, application rate 500 g/ha, evaluation 7 days after inoculation, read-out: efficacy
Procedure: Erysiphe test (barley)/protective [table] To produce a suitable preparation of active compound, 1 part by weight of active compound is mixed with the stated amounts of solvent and emulsifier, and the concentrate is diluted with water to the desired concentration. To test for protective activity, young plants are sprayed with the preparation of active compound at the stated application rate. After the spray coating has dried on, the plants are dusted with spores of Erysiphe graminis f.sp. hordei. The plants are placed in a greenhouse at a temperature of about 20° C. and a relative atmospheric humidity of about 80% to promote the development of mildew pustules.

[6] = system: apple scab pathogen Venturia inaequalis; test: Venturia test (apple)/protective; type: in vivo; details: 240 h, protective, application rate 100 g/ha, evaluation 10 days after inoculation, read-out: efficacy
Procedure: Venturia test (apple)/protective […] To produce a suitable preparation of active compound, 1 part by weight of active compound is mixed with the stated amounts of solvent and emulsifier, and the concentrate is diluted with water to the desired concentration. To test for protective activity, young plants are sprayed with the preparation of active compound at the stated application rate. After the spray coating has dried on, the plants are inoculated with an aqueous conidia suspension of the apple scab pathogen Venturia inaequalis and then remain in an incubation cabin at about 20° C. and 100% relative atmospheric humidity for 1 day. The plants are then placed in a greenhouse at about 21° C. and a relative atmospheric humidity of about 90%.

[7] = system: apple mildew pathogen Podosphaera leucotricha; test: Podosphaera test (apple)/protective; type: in vivo; details: 240 h, protective, application rate 100 g/ha, evaluation 10 days after inoculation, read-out: efficacy
Procedure: as §1, with “Podosphaera” for “Sphaerotheca”, “(apple)/protective” for “(cucumber)/protective”, “the apple mildew pathogen Podosphaera leucotricha.” for “Sphaerotheca fuliginea.”

[8] = system: green peach aphid (Myzus persicae); test: Myzus test/broad beans; type: in vivo; details: broad bean seedlings dipped, active compound concentration 100 ppm, after 6 days
Procedure: Myzus test/broad beans [table] To produce a suitable preparation of active compound, 1 part by weight of active compound is mixed with the stated amount of solvent and the stated amount of emulsifier, and the concentrate is diluted with emulsifier-containing water to the desired concentration. Broad bean seedlings (Vicia faba minor) which are infected by the green peach aphid (Myzus persicae) are dipped into a preparation of active compound of the desired concentration and placed into a plastic dish. After the desired period of time, the kill in percent is determined. 100% means that all animals have been killed; 0% means that none of the animals have been killed.

[9] = system: army worm (Spodoptera frugiperda); test: Spodoptera frugipereda test/synthetic feed; type: in vivo; details: larva (L3) on synthetic feed, concentration of active compound 500 ppm
Procedure: Spodoptera frugipereda test/synthetic feed [table] To produce a suitable preparation of active compound, 1 part by weight of active compound is mixed with the stated amount of solvent and the stated amount of emulsifier, and the concentrate is diluted with emulsifier-containing water to the desired concentration. A stated amount of the preparation of active compound of the desired concentration is pipetted onto a standardized amount of synthetic feed. In 6 replications, in each case one larva (L3) of the army worm (Spodoptera frugiperda) is placed onto the feed. After the desired period of time, the kill in % is determined. 100% means that all animals have been killed; 0% means that none of the animals have been killed.

[10] = logP determination by HPLC (EEC Directive 79/831 Annex V.A8); details: pH 2

Structure (SMILES) | chromatographic logP ([1]; logP) | pest or weed control at 500 g/ha [2] | pest or weed control at 100 g/ha [3] | pest or weed control at 100 g/ha [4] | pest or weed control at 500 g/ha [5] | pest or weed control at 100 g/ha [6] | pest or weed control at 100 g/ha [7] | chromatographic logP ([1]; pH 2, log P (pH 2)) | kill [8] | kill rate [9] | chromatographic logP [10] | log P (pH 2)
CNC(=O)/C(=N/OC)c1ccc(F)cc1Oc1ncnc(Oc2ccccc2F)c1F [Example 16] | 3.03 | ≥ 98% |  |  |  |  |  |  |  |  |  | 
CNC(=O)/C(=N/OC)c1c(F)cccc1CO/N=C(\C)c1cccc(C(F)(F)F)c1 [Example 51] | 3.71 |  | ≥ 98% | ≥ 86% | ≥ 98% | ≥ 97% | ≥ 82% |  |  |  |  | 
CNC(=O)/C(=N/OC)c1c(F)cccc1Oc1cc(Oc2cccc(Cl)c2C)ncn1 [Example 57] | 3.24 | ≥ 98% | ≥ 98% | ≥ 86% |  | ≥ 97% | ≥ 82% |  |  |  |  | 
CNC(=O)/C(=N/OC)c1ccc(F)cc1Oc1ncnc(Oc2ccccc2C(F)(F)F)c1F [Example 31] | 3.26 | ≥ 98% | ≥ 98% | ≥ 86% |  | ≥ 97% | ≥ 82% |  |  |  |  | 
CNC(=O)/C(=N/OC)c1c(F)cccc1Oc1ncnc(Oc2ccccc2Cl)c1F [Example 2, 2-{2-[6-(2-chlorophenoxy)-5-fluoropyrimidin-4-yloxy]-6-fluorophenyl}-2-methoxyimino-N-methylacetamide] |  | ≥ 98% | ≥ 98% | ≥ 86% |  | ≥ 97% | ≥ 82% | 3.1 |  |  |  | 
CNC(=O)/C(=N/OC)c1c(F)cccc1Oc1cc(Oc2ccccc2Cl)ncn1 [Example 47] | 2.79 | ≥ 98% | ≥ 98% | ≥ 86% |  | ≥ 97% | ≥ 82% |  |  |  |  | 
CNC(=O)/C(=N\OC)c1c(F)cccc1CO/N=C(\C)c1cccc(C(F)(F)F)c1 [Example 56] | 3.8 |  | ≥ 98% | ≥ 86% |  | ≥ 97% | ≥ 82% |  | 100% |  |  | 
CO/N=C(/C(=O)OC)c1c(F)cccc1Oc1ncnc(Oc2cccc(Cl)c2C)c1F [Example 1, methyl {2-[6-(3-chloro-2-methylphenoxy)-5-fluoropyrimidin-4-yloxy]-6-fluorophenyl}methoxyiminoacetate] |  |  | ≥ 98% |  | ≥ 98% | ≥ 97% | ≥ 82% | 4.23 |  | ≥ 98% |  | 
CO/N=C(/C(=O)OC)c1c(F)cccc1COc1ccccc1C [Example 8, methyl (2-fluoro-6-o-tolyloxymethylphenyl)methoxyiminoacetate] |  |  | ≥ 98% |  | ≥ 98% | ≥ 97% | ≥ 82% | 3.65 |  |  |  | 
Cc1cccc(F)c1C(=O)C#N [Example (XX-1), 2-fluoro-6-methylbenzoyl cyanide] |  |  |  |  |  |  |  |  |  |  | 2.55 | 
CO/N=C(/C(=O)OC)c1c(F)cccc1Oc1ncnc(Oc2cccc(Cl)c2Cl)c1F [Example 12] | 4.16 |  | ≥ 98% | ≥ 86% | ≥ 98% | ≥ 97% | ≥ 82% |  |  |  |  | 
CNC(=O)/C(=N/OC)c1c(F)cccc1Oc1cc(Oc2cccc(Cl)c2Cl)ncn1 [Example 46] | 3.23 | ≥ 98% | ≥ 98% | ≥ 86% |  | ≥ 97% | ≥ 82% |  |  |  |  | 
CO/N=C(/C(=O)OC)c1c(F)cccc1Oc1ncnc(Oc2ccccc2Cl)c1F [Example 14] | 3.73 |  | ≥ 98% | ≥ 86% | ≥ 98% | ≥ 97% | ≥ 82% |  |  |  |  | 
CNC(=O)/C(=N/OC)c1ccc(F)cc1Oc1ncnc(Oc2ccc(Cl)cc2)c1F [Example 22] | 3.32 | ≥ 98% |  |  |  |  |  |  |  |  |  | 
CNC(=O)/C(=N/OC)c1c(F)cccc1Oc1ncnc(Oc2cccc(Cl)c2Cl)c1F [Example 48] | 3.5 | ≥ 98% | ≥ 98% | ≥ 86% |  | ≥ 97% | ≥ 82% |  |  |  |  | 
CNC(=O)/C(=N/OC)c1c(F)cccc1Oc1nccc(OCC(F)(F)C(F)(F)F)n1 [Example 44] | 2.89 |  |  |  | ≥ 98% |  |  |  |  |  |  | 
CNC(=O)/C(=N/OC)c1c(F)cccc1Oc1ccccc1 [Example 4, 2-(2-fluoro-6-phenoxyphenyl)-2-methoxyimino-N-methylacetamide] |  |  |  |  | ≥ 98% |  |  | 2.56 |  |  |  | 
CO/N=C(/C(=O)OC)c1c(F)cccc1CBr [Example (VIII-1), methyl (2-bromomethyl-6-fluorophenyl)methoxyiminoacetate] |  |  |  |  |  |  |  | 2.58 |  |  |  | 2.87
CNC(=O)/C(=N/OC)c1c(F)cccc1Oc1ncnc(Oc2cccc(Cl)c2C)c1F [Example 45] | 3.6 | ≥ 98% | ≥ 98% | ≥ 86% |  | ≥ 97% | ≥ 82% |  |  |  |  | 
CO/N=C(\C(=O)OC)c1c(F)cccc1Oc1ccccc1 [Example 43] | 3.42 |  |  |  | ≥ 98% |  |  |  |  |  |  | 
CNC(=O)/C(=N/OC)c1ccc(F)cc1Oc1ncnc(Oc2cccc(Cl)c2C)c1F [Example 10] | 3.62 |  |  |  | ≥ 98% |  |  |  |  |  |  | 
CO/N=C(/C(=O)OC)c1c(F)cccc1CO/N=C(\C)c1cccc(C(F)(F)F)c1 [Example 50] | 4.27 |  | ≥ 98% | ≥ 86% | ≥ 98% | ≥ 97% | ≥ 82% |  |  |  |  | 
